Results on twelve compounds are retold here after patent US10343991B2, “C5, C6 substituted and/or fused oxindoles as anti-cancer agents and process for preparation thereof” (Council of Scientific & Industrial Research, priority 2016, dated 2019).

Data set [1] concerns THP1 cells. Nature of the data set: Trypan blue assay, cell viability. The data set is classed as cell-based. The following applies: Homo sapiens, THP-1, 48 h, average of three experiments. On the procedure: (§1) In order to determine the anticancer potency, the synthesized oxindole derivatives were evaluated for anti-cancer activity various different human cancer cell lines, Leukemic Cancer (THP1), human breast cancer (MDA-MB-231 and MCF-7), human cervix carcinoma cells (HeLa), prostate cancer (DU-145) cellS by using standard Trypan blue and SRB assays. The preliminary anticancer activity for all the synthesized compounds was done at 10 μM concentration and cell inhibition was determined. […] The experiment was repeated thrice and the average values were taken.
The assay was carried out in a 24 well flat-bottomed microtiter tissue culture plate. THP1 cells were seeded in the plates with a density of 4×10^4 cells/well (counted by tryphan blue exclusion dye method). Compounds were added to obtain a concentration of 10 μM. Sunitinib was used as positive control. Plates were incubated for 48 h at 37° C. in a humidified incubator with 5% CO2. At the end of the treatments, cells (THP1) were resuspended in 0.4% trypan blue and percent cell viability was counted using countess cell chamber (Life Technologies).

A further data set relates to HeLa cells. Description: SRB assay, cell viability. The data set is classed as cell-based. The following applies: Homo sapiens, 48 h, average of three experiments. The procedure: as §1
(§2) The assay was carried out in a 24 well flat-bottomed microtiter tissue culture plate. Cells were seeded in the plates with a density of 4×10^4 cells/well (counted by tryphan blue exclusion dye method). After 24 hours media was replaced with fresh media and then compounds were added to obtain a concentrations of 10 μM. Sunitinib was used as positive control. Plates were incubated for 48 h at 37° C. in a humidified incubator with 5% CO2. After 48 hours without removing the cell culture supernatant, 500 μl of cold 10% (wt/vol) TCA was added to each well, and the plates were incubated at 4° C. for 1 h. The plates were washed for four times with water then rinsed with water several times to remove TCA, serum, proteins and excess water was removed using paper towels and air dried. 100 μl of 0.4% (wt/vol in 1% acetic acid) SRB solution was added to each well. Plates were left at room temperature for 30 min and then the plates were quickly rinsed for four times with 1% (vol/vol) acetic acid to remove unbound dye were and then air dried until no moisture was visible. 100 μl of 10 mM Tris base solution (pH 10.5) was added to each well and shake for 5 min to solubilize the protein-bound dye. Optical density was measured at 564 nm in a micro plate reader.

The test system of another data set is MCF-7 cells. Nature of the data set: SRB assay, cell viability. The data set is classed as cell-based. The following applies: Homo sapiens, MCF7, 48 h, average of three experiments. On the procedure:
as §1, §2

The next data set relates to DU-145 cells. Nature of the data set: SRB assay, cell viability. The data set is classed as cell-based. The following applies: Homo sapiens, 48 h, average of three experiments, read-out: DU145 Cell Viability at 10 μM. On the procedure:
as §1, §2

Another data set relates to MDA-MB-231 cells. Nature of the data set: SRB assay, cell viability. The data set is classed as cell-based. The following applies: Homo sapiens, 48 h, average of three experiments. On the procedure: as §1, §2
Data set [2] deals with VEGF tyrosin kinase (VEGFR). Nature of the data set: VEGFR activity, phosphotyrosine (PY) cell-based ELISA. The following applies: 10 μM, 60 min pretreatment, VEGF stimulation. On the procedure: Briefly, cells at 60-75% confluence were placed in serum-free medium for 18 h to reduce the background of phosphorylation. Cells were then pretreated for 60 min with 2b, 3d, 3e, 3g, 3h, 3i, 3j and 3k compounds at 10 μM concentration followed by an optimized dose of purified growth factor (VEGF). The reaction was stopped, and cells were permeabilized by quickly removing the media from the cells and adding ice-cold Tris-buffered saline (TBS) containing 0.05% triton X-100, protease inhibitor cocktail, and tyrosine phosphatase inhibitor cocktail (both from Sigma Chemical). The TBS solution was then removed, and cells were fixed to the plate by heat and further incubation in 70% ethanol. Cells were further exposed to block (TBS with 1% BSA) and washed, and then a horseradish peroxidase (HRP)-conjugated phosphotyrosine antibody was added. The antibody was removed; cells were washed again and exposed to an enhanced luminol ELISA substrate, and light emission was measured using a plate reader. The known RTK-specific kinase inhibitor (Sunitinib) was used as positive control for kinase inhibition.

Data set [3] relates to THP1 cells. The data set is classed as cell-based, human. The following applies: THP-1 cells, 10 μM, 24 h; untreated cells 68.3%. The procedure: To understand the anticancer activity mechanism of the synthesized oxindole derivatives, we analysed the cell cycle alteration phase distribution of the cells by treating THP1 cells with oxindole derivatives at 10 μM, for 24 h and analyzed by flow cytometry. Treatment of THP-1 cells with compounds 2b, 3d, 3e, 3g, 3h, 3i, 3j and 3k caused an accumulation of 98.5%, 94.3%, 96.7%, 97%, 98%, 83%, 93.5%, 98.1% cells in the G0/G1 phase respectively as compared to 68.3% in untreated cells and 99.5% in Sunitinib treated cells. […] (Fig. x and Table .y).
The THP1 cells were treated with the active compounds at […] and incubated for about 24 h. The cells were fixed in ice cold ethanol solvent at 4° C. for about 30 minutes. The ethanol was removed and cells were treated with 1 mL of DNA staining solution (2 mg of RNase and 0.2 mg of propidium iodide (PI)) for 30 minutes. The DNA content was measured by flow cytometry (BD FACS C anto II). Results were analysed using FCS express 4 plus software.

`O=C1Cc2cc(C(C#Cc3ccccc3)c3ccccc3)c(O)cc2N1` (stereo not drawn) [Compound 2a, 5-(1,3-Diphenylprop-2-yn-1-yl)-6-hydroxyindolin-2-one] returned a melting point of 195 to 196 °C. Besides, the viability at 10 µM in the data set with THP1 cells [1] stood at 34.5%. For the same compound, the viability at 10 µM in the data set on HeLa cells amounted to 36.6%. The viability at 10 µM in the data set on MCF-7 cells was 39.7%. Moreover, in the data set on DU-145 cells, the viability at 10 µM was 41.7%. Moreover, the viability at 10 µM in the data set on MDA-MB-231 cells was determined as 71.3%.
For the compound `COc1cccc(C(C#CCOCc2ccccc2)c2cc3c(cc2O)NC(=O)C3)c1OC` (stereo not drawn) [Compound 2b, 5-(4-(Benzyloxy)-1-(2,3-dimethoxyphenyl)but-2-ynyl)-6-hydroxyindolin-2-one], the melting point was 177 to 179 °C. In data set [2], the “inhibitory activity of VEGF tyrosin kinase activity” value was “inhibitory activity”. Besides, the viability at 10 µM in the data set on THP1 cells [1] worked out at 48.5%. For the same compound, the viability at 10 µM in the data set with HeLa cells is 40.4%. Also, the viability at 10 µM in the data set on MCF-7 cells came to 39.8%. Moreover, the viability at 10 µM in the data set on DU-145 cells was 51.2%. For the same compound, the viability at 10 µM with MDA-MB-231 cells was determined as 42.8%. For the same compound, the “accumulation of cells in the G0/G1 phase” value in the data set with THP1 cells [3] came to 98.5%.
Turning to `O=C1Cc2cc3c(-c4ccccc4)c(Cc4ccccc4)oc3cc2N1` [Compound 3a, 2-Benzyl-3-phenyl-5H-furo[3,2-f]indol-6(7H)-one], the melting point is 196 to 198 °C. Further, the viability at 10 µM in the data set on THP1 cells [1] is 53.6%. Further, the viability at 10 µM in the data set with HeLa cells was 27.6%. Moreover, in the data set on MCF-7 cells, the viability at 10 µM was found to be 51.1%. Moreover, in the data set with DU-145 cells, the viability at 10 µM was determined as 21.7%. In addition, the viability at 10 µM in the data set with MDA-MB-231 cells was determined as 53.8%.
In the case of `COc1cccc(-c2c(CCOCc3ccccc3)oc3cc4c(cc23)CC(=O)N4)c1OC` [Compound 3b, 2-(2-(Benzyloxy)ethyl)-3-(2,3-dimethoxyphenyl)-5H-furo [3,2-f] indol-6(7H)-one], the melting point was in the range of 120 to 122 °C. The viability at 10 µM in the data set with THP1 cells [1] came to 75.5%. In addition, in the data set with HeLa cells, the viability at 10 µM was 40.5%. The viability at 10 µM in the data set with MCF-7 cells came to 49.3%. In addition, the viability at 10 µM with DU-145 cells was 69.2%. In the data set with MDA-MB-231 cells, the viability at 10 µM turned out to be 72.5%.
`Cc1cc(C)c(/C=C2\C(=O)Nc3cc(O)c(C(C#Cc4ccccc4)c4ccccc4)cc32)[nH]1` (stereo not drawn) [Compound 3c, (Z)-3-((3,5-dimethyl-1H-pyrrol-2-yl)methylene)-5-(1,3-diphenylprop-2-yn-1-yl)-6-hydroxyindolin-2-one] yielded a melting point of 173 to 179 °C. For the same compound, the viability at 10 µM with THP1 cells [1] worked out at 125%. For the same compound, the viability at 10 µM in the data set with HeLa cells was determined as 78.2%. Moreover, in the data set on MCF-7 cells, the viability at 10 µM amounted to 49.9%. Further, in the data set on DU-145 cells, the viability at 10 µM was 81.3%. For the same compound, the viability at 10 µM with MDA-MB-231 cells was 74.5%.
The compound `Cc1ccsc1/C=C1\C(=O)Nc2cc(O)c(C(C#Cc3ccccc3)c3ccccc3)cc21` (stereo not drawn) [Compound 3d, (Z)-5-(1,3-diphenylprop-2-yn-1-yl)-6-hydroxy-3-((3-methylthiophen-2-yl)methylene)indolin-2-one] came in with a melting point of 182 to 185 °C. Also, the “inhibitory activity of VEGF tyrosin kinase activity” value in data set [2] is recorded as “inhibitory activity”. Further, the viability at 10 µM in the data set with THP1 cells [1] is 33.3%. For the same compound, in the data set on HeLa cells, the viability at 10 µM turned out to be 71.3%. In addition, the viability at 10 µM in the data set on MCF-7 cells was found to be 30.7%. Moreover, in the data set on DU-145 cells, the viability at 10 µM worked out at 45.5%. In the data set on MDA-MB-231 cells, the viability at 10 µM stood at 35.9%. In addition, the “accumulation of cells in the G0/G1 phase” value in the data set with THP1 cells [3] is listed as 94.3%.
Take `CN(C)c1ccc(/C=C2\C(=O)Nc3cc(O)c(C(C#Cc4ccccc4)c4ccccc4)cc32)c2ccccc12` (stereo not drawn) [Compound 3e, (Z)-3-((4-(dimethylamino)naphthalen-1-yl)methylene)-5-(1,3-diphenylprop-2-yn-1-yl)-6-hydroxyindolin-2-one]: the melting point was in the range of 188 to 192 °C. Also, in data set [2], the “inhibitory activity of VEGF tyrosin kinase activity” value is recorded as “inhibitory activity”. The viability at 10 µM in the data set with THP1 cells [1] was found to be 125%. In addition, in the data set with HeLa cells, the viability at 10 µM turned out to be 153%. In the data set with MCF-7 cells, the viability at 10 µM turned out to be 78.2%. The viability at 10 µM in the data set with DU-145 cells turned out to be 48.2%. Besides, in the data set with MDA-MB-231 cells, the viability at 10 µM was found to be 85.9%. Also, in the data set with THP1 cells [3], the “accumulation of cells in the G0/G1 phase” value worked out at 96.7%.
Consider `COc1cccc(C(C#CCOCc2ccccc2)c2cc3c(cc2O)NC(=O)/C3=C\c2[nH]c(C)cc2C)c1OC` (stereo not drawn) [Compound 3f], for which the melting point was in the range of 181 to 183 °C. In the data set on THP1 cells [1], the viability at 10 µM was found to be 30.2%. Besides, the viability at 10 µM in the data set with HeLa cells came out at 39.4%. In addition, the viability at 10 µM with MCF-7 cells amounted to 33.1%. For the same compound, in the data set on DU-145 cells, the viability at 10 µM was 62.1%. In addition, the viability at 10 µM in the data set on MDA-MB-231 cells was found to be 37.7%.
For the compound `COc1cccc(-c2c(COCc3ccccc3)oc3cc4c(cc23)/C(=C/c2[nH]c(C)cc2C)C(=O)N4)c1OC` [Compound 3k, (Z)-2-((benzyloxy)methyl)-3-(2,3-dimethoxyphenyl)-5-((3,5-dimethyl-1H-pyrrol-2-yl)methylene)-5H-furo[3,2-f]indol-6(7H)-one], in data set [2], the “inhibitory activity of VEGF tyrosin kinase activity” value was “inhibitory activity”. Besides, the viability at 10 µM was 80.5% in the data set on THP1 cells [1]; 38.9% in the data set on HeLa cells; 43.1% with MCF-7 cells; 62.7% in the data set on DU-145 cells; 109% in the data set on MDA-MB-231 cells. For the same compound, the “accumulation of cells in the G0/G1 phase” value in the data set with THP1 cells [3] was 98.1%.
Consider `COc1cccc(-c2c(COCc3ccccc3)oc3cc4c(cc23)/C(=C/c2sccc2C)C(=O)N4)c1OC` [Compound 3l, (Z)-2-((benzyloxy)methyl)-3-(2,3-dimethoxyphenyl)-5-((3-methylthiophen-2-yl)methylene)-5H-furo[3,2-f]indol-6(7H)-one], for which the viability at 10 µM stood at 106% in the data set on THP1 cells [1]; 52% in the data set with HeLa cells; 79% in the data set with MCF-7 cells; 49.7% with DU-145 cells; 111% with MDA-MB-231 cells.
The compound `Cc1ccc(S(=O)(=O)n2cc(-c3c(Cc4ccccc4)oc4cc5c(cc34)/C(=C/c3[nH]c(C)cc3C)C(=O)N5)c3ccccc32)cc1` [Compound 3m, (Z)-2-benzyl-5-((3,5-dimethyl-1H-pyrrol-2-yl)methylene)-3-(1-tosyl-1H-indol-3-yl)-5H-furo[3,2-f]indol-6(7H)-one] came in with a melting point of 174 to 176 °C. The viability at 10 µM in the data set with THP1 cells [1] is 68.2%. In the data set with HeLa cells, the viability at 10 µM is 87.6%. The viability at 10 µM in the data set with MCF-7 cells worked out at 71.4%. Further, the viability at 10 µM in the data set on DU-145 cells came out at 91.7%. For the same compound, in the data set with MDA-MB-231 cells, the viability at 10 µM came to 75.5%.
Turning to `CCN(CC)CCNC(=O)c1c(C)[nH]c(/C=C2\C(=O)Nc3ccc(F)cc32)c1C` [SUNT, Sunitinib, reference compound], the viability at 10 µM stood at 35.2% with THP1 cells [1]; 37.1% in the data set on HeLa cells; 34.3% with MCF-7 cells; 35% with DU-145 cells; 39.5% with MDA-MB-231 cells. In addition, in the data set on THP1 cells [3], the “accumulation of cells in the G0/G1 phase” value is listed as 99.5%.
